Measured values from EP3263567A1, “CARBOXAMIDE-SUBSTITUTED PYRAZOLES AND TRI(HETERO)ARYL-PYRAZOLES FOR USE IN METHODS OF TREATING AND / OR PREVENTING CARDIOVASCULAR DISEASES AND / OR COMORBIDITIES THEREOF” (AiCuris Anti-infective Cures GmbH, priority 2016, dated 2018).
Entries after “also recorded” stand apart in the source; their conditions may differ.

How the values were obtained:
[1] = test system: Beagle dogs; test: 4-week beagle dog experiment, toxicity observations; format: in vivo
Protocol: (§1) [drawing 93] i.e. 4-[5-[3-Chloro-5-(trifluoromethoxy)phenyl]-1-(pyridin-3-yl)-1H-pyrazol-3-yl]-5,6-dihydro-7H-pyrrolo[3,4-d]pyrimidin-7-one, was administered in a 4-week beagle dog experiment with integrated non-invasive telemetric electrocardiography (ECG) measurements for determining its cardiovascular effects; specifically its effects on the heart rate.
(§2) 32 Beagle dogs (16 males and 16 females) with parameters in the normal range were tested for cardiovascular effects of Compound A administration and divided into the study groups indicated below.
Duration of study: • 4 acclimatization weeks • 4 test weeks • 4 additional test weeks for the animals scheduled for the recovery period.
(§3) The test compound A-formulation of the appropriate concentration was administered by oral administration at a constant administration volume/kg b.w.
(§4) • Groups 1 and 4: Twice daily at an 8-hour interval for 28 consecutive days. • Groups 2 to 3: Once daily for 28 consecutive days.
The animals were observed individually before and after dosing at each time of dosing for any signs of behavioural changes, reaction to treatment or illness.
Kennel side observations included skin/fur, eyes, mucous membranes, respiratory and circulatory systems, somatomotor activity and behaviour patterns. The onset, intensity, and duration of any signs observed were recorded.

[2] = test system: Beagle dogs; test: 4-week beagle dog experiment, non-invasive telemetry (ECG, heart rate, blood pressure); format: in vivo
Protocol: as §1, §2, §3, §4
Telemetry parameters were monitored at the following times: • Predose and in test week 4: All 32 animals included in this study. • At the end of the recovery period in test week 8: All 8 recovery animals.
Parameters were monitored telemetrically with the EMKA Technologies System continuously starting approximately 24 hours prior to the first treatment (baseline; pre-dose values) and for approximately 24 hours in test week 4 and at the end of the recovery period in test week 8. The dogs were habituated and trained for wearing the jackets equipped with the telemetry transmitter and air-filled cuff placed on their tail.
The following telemetry parameters were determined: • Peripheral arterial blood pressure in the tail (blood flow occlusion using an air filled cuff) • Heart rate • Electrocardiography (QRS, QT, PQ, RR) • Respiration (respiratory inductive plethysmography; belts were placed around the thorax and abdomen) • Skin temperature • Physical activity.
The report includes the data recorded at the following intervals: • Pre-dose: Every 4 hours after start of recording (7 (Baseline; approx. 24 hours) tracings per animal) • Test week 4: Approx. 0, 1, 2, 6, and 24 hours after (Start of treatment to 24 hours post the 1 st administration of the day treatment relating to first dosing of the day) • At the end of the recovery period in Every 4 hours after start of recording (7 test week 8: tracings per animal)
The electrocardiogram was visually assessed for any abnormalities of the electrical complexes (i.e. arrhythmias, interval prolongations). In addition, the following parameters were evaluated:
Furthermore, the QTc-values were calculated according to the following Bazett-formula: QTc = (QT [sec])/(sqrt((R−R distance[sec]))) [formula]

[3] = target: T1, Kv1.5 (Homo sapiens, UniProt P22460); test: Whole-cell patch-clamp, Kv1.5 currents in stably transfected CHO cells; format: cell-based; details: summary statement
T1 construct: expressed in transfected cells; host or cells: CHO (ATCC CCL-61), stably transfected; selection with Hygromycin
Protocol: [drawing 92] i.e. 4-[5-[3-Chloro-5-(trifluoromethoxy) phenyl]-1-(pyridin-3-yl)-1H-pyrazol-3-yl]-5,6-dihydro-7H-pyrrolo[3,4-d]pyrimidin-7-one, was tested for its effects on human Nav1.5, Cav1.2, Kv1.5, and HCN4 currents recorded from stably transfected CHO cells. The effect of four concentrations of this compound on these currents was investigated.
The whole-cell patch-clamp technique was used to investigate the effect of Compound A on the currents of Nav1.5, Kv1.5, Cav1.2 and HCN4 channels, expressed in CHO cells (ATCC, CCL-61). Compound A was tested at concentrations of 200 nM, 600 nM, 2000 nM and 6000 nM. […]
The 35 mm culture dishes upon which cells were seeded at a density allowing single cells to be recorded were placed on the dish holder of the microscope and continuously perfused (at approximately 1 mL/min) with the bath solution described in section 4.7. […]
As soon as a stable seal could be established outward tail currents were measured upon pulses described in the Table below: […]
Values in Ampere (A) of the peak amplitudes of outward tail currents were generated for each voltage step. […] The recorded current amplitudes at the steady state level of current inhibition were compared to those from control conditions measured in the pre-treatment phase of the same cell. The amount of current block was calculated as percentage of control. […]

[4] = 3, 10 or 2 x 50 mg/kg b.w./day oral, test week 4

T1 sequence (P22460 whole entry): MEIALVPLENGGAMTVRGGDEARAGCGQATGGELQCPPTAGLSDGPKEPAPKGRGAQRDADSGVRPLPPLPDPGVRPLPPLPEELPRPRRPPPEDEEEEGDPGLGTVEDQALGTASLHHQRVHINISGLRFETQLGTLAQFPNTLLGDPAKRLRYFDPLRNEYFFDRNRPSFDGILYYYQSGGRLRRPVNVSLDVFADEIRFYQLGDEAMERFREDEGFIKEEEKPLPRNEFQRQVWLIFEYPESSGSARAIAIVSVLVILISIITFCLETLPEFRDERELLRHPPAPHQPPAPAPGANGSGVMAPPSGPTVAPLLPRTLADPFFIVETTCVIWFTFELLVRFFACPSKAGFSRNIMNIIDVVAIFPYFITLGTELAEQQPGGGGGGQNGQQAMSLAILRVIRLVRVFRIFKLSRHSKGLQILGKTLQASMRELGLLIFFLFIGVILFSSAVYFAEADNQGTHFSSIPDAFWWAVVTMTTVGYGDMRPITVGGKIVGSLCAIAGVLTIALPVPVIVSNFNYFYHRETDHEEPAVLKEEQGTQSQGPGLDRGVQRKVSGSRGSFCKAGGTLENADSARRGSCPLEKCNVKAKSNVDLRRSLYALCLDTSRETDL

O=C1NCc2c1ncnc2-c1cc(-c2cc(Cl)cc(OC(F)(F)F)c2)n(-c2cccnc2)n1 [Compound A, 4-[5-[3-Chloro-5-(trifluoromethoxy)phenyl]-1-(pyridin-3-yl)-1H-pyrazol-3-yl]-5,6-dihydro-7H-pyrrolo[3,4-d]pyrimidin-7-one]
mortality ([1]; 3, 10 or 2 x 50 mg/kg b.w./day for 4 weeks, treatment and recovery period): None
signs of systemic intolerance (behaviour, external appearance, faeces) ([1]; 3, 10 or 2 x 50 mg/kg b.w./day oral for 4 weeks and 4-week recovery): No compound A-related signs of systemic intolerance
eyes and auditory acuity ([1]; 4 weeks): No changes or adverse effects
haematology, clinical biochemistry, urinalysis, ophthamological and auditory examination, organ weights, bone marrow, histopathology ([1]; 4 weeks): No compound A-related influences
macroscopic inspection at necropsy ([1]; 4 weeks): did not reveal any morphological changes
histopathological examination ([1]; end of main study and of 4-week recovery period): did not reveal any Compound A-related morphological changes
body weight and body weight gain; food and drinking water consumption ([1]; treatment period): No compound A-related influence
start of telemetric changes after last administration ([2]; 1st evaluated telemetric time-point, test week 4): ≤ 5 min
effect on QTc interval ([2]; 3, 10 or 2 x 50 mg/kg b.w./day oral, 4 weeks): no adverse effects on QTc-interval; also recorded: no effect on QTc; also recorded: No influence
prolonged QT interval [2, 4]: ≤ 50%
prolonged RR interval [2, 4]: ≤ 140%
decreased heart rate ([2]; 3, 10 or 2 x 50 mg/kg b.w./day oral, test week 4, compared to control group): ≤ 50%
severe bradycardia or atrial fibrillation ([2]; beagle dog study): no signs of too much slowing of the heart rate (severe bradycardia) nor atrial fibrillation
telemetric changes lasting until, after administration ([2]; end of telemetric measurement, test week 4): 24 h
influence on systolic and diastolic blood pressures ([2]; oral, 4 weeks): No influence
recovery of telemetric changes after 4-week treatment-free recovery period ([2]; week 8, high dose group 2 x 50 mg/kg b.w./day): full recovery; also recorded: completely subsided
interaction with ion channels of Kav [3]: do not interact with other ion channels of Nav, Kav, and Cav substantially
